Results as given in US20250353891A1 (MEDIMMUNE LIMITED, priority 2022, published 2025).
Starred links: 1 amine or outer side, 2 acyl side, 3 side chain; linkers in the order of their positions; H or OH if unused. Non-standard residues stand in square brackets, D forms with d. Residues, ends and D or L forms follow the SMILES beside them. Groups on a side chain read outwards from the residue. *: point of attachment. γGlu = O=C(O)[C@H](CCC(=O)[*:2])N[*:1]; Stearoyl = CCCCCCCCCCCCCCCCCC(=O)*; Palmitoyl = CCCCCCCCCCCCCCCC(=O)*; αMeF = C[C@](N)(Cc1ccccc1)C(=O)O; PEG2 = NCCOCCOCCC(=O)O; Aib = CC(C)(N)C(=O)O

Legend:
[1] = target: human glucagon receptor (hGCGR) (Homo sapiens, UniProt P47871); assay: cAMP production (HTRF) in CHO cells expressing hGCGR; type: cell-based; design: expressed in transfected cells; conditions: Table 6, peptides modified at position 17; cAMP in CHO hGCGR cells; geometric mean; read-out: hGluc-R EC50
In short: (§1)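 Potency values represent EC50 from 4-parameter logistic curves of HTRF % Delta F signal. Receptor-expressing CHO cells (hGCGR 2×10^5 cells/mL, hGLP-1R 1×10^5 cells/mL) were exposed for 30 min at room temperature before two-step cAMP detection.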

[2] = target: human GLP-1 receptor (hGLP-1R) (Homo sapiens, UniProt P43220); assay: cAMP production (HTRF) in CHO cells expressing hGLP-1R; type: cell-based; design: expressed in transfected cells; conditions: for EC50: Table 6, peptides modified at position 17, cAMP in CHO hGLP-1R cells, geometric mean, read-out: hGLP-1R EC50; for % Relative Potency Ratio: Table 6, % GLP-1R activity relative to GLP-1 / % GlucR activity relative to glucagon
In short: as §1

Chain of human glucagon receptor (hGCGR) (P47871 26-477): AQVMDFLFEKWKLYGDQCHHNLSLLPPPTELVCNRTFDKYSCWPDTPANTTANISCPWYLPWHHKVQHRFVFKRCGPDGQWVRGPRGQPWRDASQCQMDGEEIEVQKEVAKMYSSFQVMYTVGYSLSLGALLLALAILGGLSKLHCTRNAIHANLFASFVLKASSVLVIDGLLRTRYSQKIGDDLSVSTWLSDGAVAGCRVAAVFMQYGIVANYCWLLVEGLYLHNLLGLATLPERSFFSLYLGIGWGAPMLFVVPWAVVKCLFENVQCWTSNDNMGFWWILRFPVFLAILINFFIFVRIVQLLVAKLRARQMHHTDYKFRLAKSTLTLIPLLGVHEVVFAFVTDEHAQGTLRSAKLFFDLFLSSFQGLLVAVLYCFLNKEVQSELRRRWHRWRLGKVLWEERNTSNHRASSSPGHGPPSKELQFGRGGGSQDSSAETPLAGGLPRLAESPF
Chain of human GLP-1 receptor (hGLP-1R) (P43220 24-463): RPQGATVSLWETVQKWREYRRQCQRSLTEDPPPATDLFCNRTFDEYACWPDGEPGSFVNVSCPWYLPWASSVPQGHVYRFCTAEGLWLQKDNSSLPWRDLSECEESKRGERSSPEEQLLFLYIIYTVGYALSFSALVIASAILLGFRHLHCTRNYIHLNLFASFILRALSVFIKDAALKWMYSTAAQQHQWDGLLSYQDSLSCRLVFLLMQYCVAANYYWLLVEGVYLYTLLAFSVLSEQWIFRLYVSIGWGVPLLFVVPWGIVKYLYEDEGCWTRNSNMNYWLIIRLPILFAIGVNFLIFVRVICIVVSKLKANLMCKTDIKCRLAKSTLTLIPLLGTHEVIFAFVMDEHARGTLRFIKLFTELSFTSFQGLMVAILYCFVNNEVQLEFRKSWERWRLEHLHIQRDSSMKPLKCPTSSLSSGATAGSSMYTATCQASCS

Structure (SMILES)	EC50 [1]	EC50 [2]	% Relative Potency Ratio [2]
CCCCCCCCCCCCCCCCCC(=O)N[C@@H](CCC(=O)N[C@@H](CCC(=O)NCCOCCOCCC(=O)NCCOCCOCCC(=O)NCCCC[C@H](NC(=O)[C@H](CO)NC(=O)[C@H](CC(=O)O)NC(=O)[C@H](CC(C)C)NC(=O)[C@](C)(Cc1ccccc1)NC(=O)[C@H](CCCCN)NC(=O)[C@H](CO)NC(=O)[C@@H](NC(=O)[C@H](CC(=O)O)NC(=O)[C@H](CO)NC(=O)[C@@H](NC(=O)[C@](C)(Cc1ccccc1)NC(=O)[C@H](CO)NC(=O)CNC(=O)[C@H](CCC(N)=O)NC(=O)C(C)(C)NC(=O)[C@@H](N)Cc1c[nH]cn1)[C@@H](C)O)C(C)C)C(=O)N[C@@H](C)C(=O)N[C@@H](C)C(=O)N[C@@H](CCC(N)=O)C(=O)N[C@@H](CC(=O)O)C(=O)N[C@@](C)(Cc1ccccc1)C(=O)N[C@H](C(=O)N[C@@H](CCC(N)=O)C(=O)NC(C)(C)C(=O)N[C@H](C(=O)N[C@H](C(=O)N[C@@H](CCC(=O)O)C(=O)NCC(=O)NCC(N)=O)C(C)C)C(C)C)C(C)C)C(=O)O)C(=O)O [Peptide 76] (H-H[Aib]QGS[αMeF]TSDVSK[αMeF]LDSK([PEG2-PEG2-γGlu-γGlu-Stearoyl])AAQD[αMeF]VQ[Aib]VVEGG-NH2; N-terminus assumed)	340 pM	1.78 pM	378.6
CCCCCCCCCCCCCCCCCC(=O)N[C@@H](CCC(=O)N[C@@H](CCC(=O)NCCOCCOCCC(=O)NCCOCCOCCC(=O)NCCCC[C@H](NC(=O)[C@H](CO)NC(=O)[C@H](CC(=O)O)NC(=O)[C@H](CC(C)C)NC(=O)[C@](C)(Cc1ccccc1)NC(=O)[C@H](CCCCN)NC(=O)[C@H](CO)NC(=O)[C@@H](NC(=O)[C@H](CC(=O)O)NC(=O)[C@H](CO)NC(=O)[C@@H](NC(=O)[C@](C)(Cc1ccccc1)NC(=O)[C@H](CO)NC(=O)CNC(=O)[C@H](CCC(N)=O)NC(=O)C(C)(C)NC(=O)[C@@H](N)Cc1c[nH]cn1)[C@@H](C)O)C(C)C)C(=O)N[C@@H](C)C(=O)N[C@@H](C)C(=O)N[C@@H](CCC(N)=O)C(=O)N[C@@H](CC(=O)O)C(=O)N[C@@](C)(Cc1ccccc1)C(=O)N[C@H](C(=O)N[C@@H](CCC(N)=O)C(=O)NC(C)(C)C(=O)N[C@@H](CC(C)C)C(=O)N[C@H](C(=O)N[C@@H](CO)C(=O)NCC(N)=O)[C@@H](C)CC)C(C)C)C(=O)O)C(=O)O [Peptide 77] (H-H[Aib]QGS[αMeF]TSDVSK[αMeF]LDSK([PEG2-PEG2-γGlu-γGlu-Stearoyl])AAQD[αMeF]VQ[Aib]LISG-NH2; N-terminus assumed)	243 pM	8.68 pM	55.5
CCCCCCCCCCCCCCCC(=O)N[C@@H](CCC(=O)N[C@@H](CCC(=O)NCCOCCOCCC(=O)NCCOCCOCCC(=O)NCCCC[C@H](NC(=O)[C@H](CO)NC(=O)[C@H](CC(=O)O)NC(=O)[C@H](CC(C)C)NC(=O)[C@](C)(Cc1ccccc1)NC(=O)[C@H](CCCCN)NC(=O)[C@H](CO)NC(=O)[C@@H](NC(=O)[C@H](CC(=O)O)NC(=O)[C@H](CO)NC(=O)[C@@H](NC(=O)[C@](C)(Cc1ccccc1)NC(=O)[C@H](CO)NC(=O)CNC(=O)[C@H](CCC(N)=O)NC(=O)[C@H](CO)NC(=O)[C@@H](N)Cc1c[nH]cn1)[C@@H](C)O)C(C)C)C(=O)N[C@@H](C)C(=O)N[C@@H](C)C(=O)N[C@@H](CCC(N)=O)C(=O)N[C@@H](CC(=O)O)C(=O)N[C@@](C)(Cc1ccccc1)C(=O)N[C@H](C(=O)N[C@@H](CCC(N)=O)C(=O)NC(C)(C)C(=O)N[C@@H](CC(C)C)C(=O)N[C@@H](CCC(=O)O)C(=O)N[C@@H](C)C(=O)NCC(=O)NCC(N)=O)C(C)C)C(=O)O)C(=O)O [Peptide 79] (H-HSQGS[αMeF]TSDVSK[αMeF]LDSK([PEG2-PEG2-γGlu-γGlu-Palmitoyl])AAQD[αMeF]VQ[Aib]LEAGG-NH2; N-terminus assumed)	10.7 pM	1.73 pM	12.2
CCCCCCCCCCCCCCCCCC(=O)N[C@@H](CCC(=O)N[C@@H](CCC(=O)NCCOCCOCCC(=O)NCCOCCOCCC(=O)NCCCC[C@H](NC(=O)[C@H](CO)NC(=O)[C@H](CC(=O)O)NC(=O)[C@H](CC(C)C)NC(=O)[C@](C)(Cc1ccccc1)NC(=O)[C@H](CCCCN)NC(=O)[C@H](CO)NC(=O)[C@@H](NC(=O)[C@H](CC(=O)O)NC(=O)[C@H](CO)NC(=O)[C@@H](NC(=O)[C@](C)(Cc1ccccc1)NC(=O)[C@H](CO)NC(=O)CNC(=O)[C@H](CCC(N)=O)NC(=O)[C@H](CO)NC(=O)[C@@H](N)Cc1c[nH]cn1)[C@@H](C)O)C(C)C)C(=O)N[C@@H](C)C(=O)N[C@@H](C)C(=O)N[C@@H](CCC(N)=O)C(=O)N[C@@H](CC(=O)O)C(=O)N[C@@](C)(Cc1ccccc1)C(=O)N[C@H](C(=O)N[C@@H](CCC(=O)O)C(=O)NC(C)(C)C(=O)N[C@@H](CC(C)C)C(=O)N[C@@H](CCC(=O)O)C(=O)N[C@@H](C)C(=O)NCC(=O)NCC(N)=O)C(C)C)C(=O)O)C(=O)O [Peptide 81] (H-HSQGS[αMeF]TSDVSK[αMeF]LDSK([PEG2-PEG2-γGlu-γGlu-Stearoyl])AAQD[αMeF]VE[Aib]LEAGG-NH2; N-terminus assumed)	13.5 pM	1.19 pM	22.6
CCCCCCCCCCCCCCCCCC(=O)N[C@@H](CCC(=O)N[C@@H](CCC(=O)NCCOCCOCCC(=O)NCCOCCOCCC(=O)NCCCC[C@H](NC(=O)[C@H](CO)NC(=O)[C@H](CC(=O)O)NC(=O)[C@H](CC(C)C)NC(=O)[C@](C)(Cc1ccccc1)NC(=O)[C@H](CCCCN)NC(=O)[C@H](CO)NC(=O)[C@@H](NC(=O)[C@H](CC(=O)O)NC(=O)[C@H](CO)NC(=O)[C@@H](NC(=O)[C@](C)(Cc1ccccc1)NC(=O)[C@H](CO)NC(=O)CNC(=O)[C@H](CCC(N)=O)NC(=O)[C@H](CO)NC(=O)[C@@H](N)Cc1c[nH]cn1)[C@@H](C)O)C(C)C)C(=O)N[C@@H](C)C(=O)N[C@@H](C)C(=O)N[C@@H](CCC(N)=O)C(=O)N[C@@H](CC(=O)O)C(=O)N[C@@](C)(Cc1ccccc1)C(=O)N[C@H](C(=O)N[C@@H](CCC(N)=O)C(=O)NC(C)(C)C(=O)N[C@H](C(=O)N[C@H](C(=O)N[C@@H](CC(N)=O)C(=O)N[C@H](C(N)=O)[C@@H](C)O)[C@@H](C)CC)[C@@H](C)CC)C(C)C)C(=O)O)C(=O)O [Peptide 83] (H-HSQGS[αMeF]TSDVSK[αMeF]LDSK([PEG2-PEG2-γGlu-γGlu-Stearoyl])AAQD[αMeF]VQ[Aib]IINT-NH2)	15.6 pM	1.04 pM	29.6
CCCCCCCCCCCCCCCCCC(=O)N[C@@H](CCC(=O)N[C@@H](CCC(=O)NCCOCCOCCC(=O)NCCOCCOCCC(=O)NCCCC[C@H](NC(=O)[C@H](CO)NC(=O)[C@H](CC(=O)O)NC(=O)[C@H](CC(C)C)NC(=O)[C@](C)(Cc1ccccc1)NC(=O)[C@H](CCCCN)NC(=O)[C@H](CO)NC(=O)[C@@H](NC(=O)[C@H](CC(=O)O)NC(=O)[C@H](CO)NC(=O)[C@@H](NC(=O)[C@](C)(Cc1ccccc1)NC(=O)[C@H](CO)NC(=O)CNC(=O)[C@H](CCC(N)=O)NC(=O)[C@H](CO)NC(=O)[C@@H](N)Cc1c[nH]cn1)[C@@H](C)O)C(C)C)C(=O)N[C@@H](C)C(=O)N[C@@H](C)C(=O)N[C@@H](CCC(N)=O)C(=O)N[C@@H](CC(=O)O)C(=O)N[C@@](C)(Cc1ccccc1)C(=O)N[C@H](C(=O)N[C@@H](CCC(N)=O)C(=O)NC(C)(C)C(=O)N[C@@H](CC(C)C)C(=O)N[C@@H](CC(C)C)C(=O)N[C@@H](CC(N)=O)C(=O)N[C@H](C(N)=O)[C@@H](C)O)C(C)C)C(=O)O)C(=O)O [Peptide 84] (H-HSQGS[αMeF]TSDVSK[αMeF]LDSK([PEG2-PEG2-γGlu-γGlu-Stearoyl])AAQD[αMeF]VQ[Aib]LLNT-NH2)	44.9 pM	2.8 pM	31.7
CCCCCCCCCCCCCCCCCC(=O)N[C@@H](CCC(=O)N[C@@H](CCC(=O)NCCOCCOCCC(=O)NCCOCCOCCC(=O)NCCCC[C@H](NC(=O)[C@H](CO)NC(=O)[C@H](CC(=O)O)NC(=O)[C@H](CC(C)C)NC(=O)[C@](C)(Cc1ccccc1)NC(=O)[C@H](CCCCN)NC(=O)[C@H](CO)NC(=O)[C@@H](NC(=O)[C@H](CC(=O)O)NC(=O)[C@H](CO)NC(=O)[C@@H](NC(=O)[C@](C)(Cc1ccccc1)NC(=O)[C@H](CO)NC(=O)CNC(=O)[C@H](CCC(N)=O)NC(=O)[C@H](CO)NC(=O)[C@@H](N)Cc1c[nH]cn1)[C@@H](C)O)C(C)C)C(=O)N[C@@H](C)C(=O)N[C@@H](C)C(=O)N[C@@H](CCC(N)=O)C(=O)N[C@@H](CC(=O)O)C(=O)N[C@@](C)(Cc1ccccc1)C(=O)N[C@H](C(=O)N[C@@H](CCC(N)=O)C(=O)NC(C)(C)C(=O)N[C@H](C(=O)N[C@H](C(=O)N[C@@H](CCC(=O)O)C(=O)NCC(=O)NCC(N)=O)C(C)C)C(C)C)C(C)C)C(=O)O)C(=O)O [Peptide 85] (H-HSQGS[αMeF]TSDVSK[αMeF]LDSK([PEG2-PEG2-γGlu-γGlu-Stearoyl])AAQD[αMeF]VQ[Aib]VVEGG-NH2; N-terminus assumed)	47.7 pM	1.04 pM	90.9
